Results on one sequence are retold here after patent publication US8911953B2, “TDF-related compounds and analogs thereof, analogs and bioactive fragments” (Thrasos Innovation, Inc., priority 2005, dated 2014).

One test concerns PC-3. As to the kind of experiment: Cancer cell proliferation, tritiated thymidine incorporation. It is filed as cell-based, human. The conditions noted are these: PC-3 cultured in vitro.
Text: (§1) TDFRP Compound Inhibition of LNCaP Cancer Cell Proliferation. BMP-6 and a TDFRP compound (SEQ ID NO:45) inhibited the proliferation of prostate cancer cells (LNCaP and PC-3) cultured in vitro as detected by the incorporation of tritiated thymidine (a measure of cell proliferation.
(§2) Prostate cancer is one of the most common cancers in men. […] Moreover, it has been shown that BMP signals inhibit the growth and the proliferation of human prostate tumor cells by upregulating the cyclin-dependent kinase inhibitor (CDKI) p21 (CIP1/WAF1) and decreasing the activity of Cdk2, leading to hypophosphorylation of Rb proteins. TDFRP compounds have been screened in in vitro prostate and bladder cancer bioassays to assess growth inhibitory activity of the compounds (FIG. 3). ^3H-thymidine incorporation is used as a marker for cell proliferation activity in human prostate and bladder cancer cell lines. Cisplatin inhibits ^3H-thymidine incorporation, indicating a tumor-growth suppressive activity of cisplatin in both human prostate and bladder cancer cells. TDFRP compounds are assayed in these cancer cells for the ability to induce receptor-regulated Smad 1/5 phosphorylation in a dose-dependent manner (FIG.).
as §2, with “(FIGS. 3, 28).” for “(FIG. 3).”, “(FIGS. 3, 28).” for “(FIG.).”

The subject of the next test is LNCaP. The description is as above. The format is cell-based, human. As to conditions: LNCaP cultured in vitro.
Text: as §1, §2
as §2, with “(FIGS. 3, 28).” for “(FIG. 3).”, “(FIGS. 3, 28).” for “(FIG.).”

Positions of bridges follow the written chain, without caps; N, C: chain ends. No end group written: not given here.

Turning to “CYFDDSSNVLCKKYRS (disulfide 1-11 (inferred); not fully specified) [SEQ ID NO:45]”, the “proliferation (incorporation of tritiated thymidine)” value in the test on PC-3 and with LNCaP was “inhibited” each time.
